Measured values as given in patent US20240124460A1, “METHODS AND COMPOSITIONS FOR TARGETED PROTEIN DEGRADATION” (Ranok Therapeutics (Hangzhou) Co. Ltd., priority 2020, published 2024).
Where two headings read alike, the source gives them in different places.

Experiments:
[1] = tested on: ERBB2; experiment: ERBB2 (HER2) flow cytometry protein degradation assay in BT-474 cells; assay type: cell-based, human; conditions: DC50, BT-474 cells, 24 hr
Procedure, shortened: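 BT-474 cells trypsinised after compound treatment and stained with PE-conjugated anti-ERBB2 antibody, 30 min at 25° C in the dark, then fixed in 1% paraformaldehyde for flow cytometry. % inhibition = 100−(D−B)/(S−B)*100, using treated, untreated-stained and unstained cell fluorescence.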

[2] = tested on: MV-4-11 human acute myeloid leukemia; experiment: MV-4-11 CCK-8 proliferation assay; assay type: cell-based; conditions: MV-4-11 cells, 72 hr
Procedure, shortened: (§1)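 CCK-8 absorbance read-out, with inhibition expressed against DMSO-treated cells after subtracting a cell-free DMSO medium blank. Compounds tested over a 3-fold dilution series spanning 20 μM to 1.02 nM; lines grown essentially as ATCC recommends.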

[3] = target: T1, MAPK7 (Homo sapiens, UniProt Q13164); experiment: MAPK7 Western blot protein degradation assay in U-87 MG cells; assay type: cell-based; design: U-87 MG human glioblastoma cells, which express MAPK7; endogenous in cells; host or cells: U-87 MG; conditions: 48 hr
T1 sequence (Q13164 whole entry): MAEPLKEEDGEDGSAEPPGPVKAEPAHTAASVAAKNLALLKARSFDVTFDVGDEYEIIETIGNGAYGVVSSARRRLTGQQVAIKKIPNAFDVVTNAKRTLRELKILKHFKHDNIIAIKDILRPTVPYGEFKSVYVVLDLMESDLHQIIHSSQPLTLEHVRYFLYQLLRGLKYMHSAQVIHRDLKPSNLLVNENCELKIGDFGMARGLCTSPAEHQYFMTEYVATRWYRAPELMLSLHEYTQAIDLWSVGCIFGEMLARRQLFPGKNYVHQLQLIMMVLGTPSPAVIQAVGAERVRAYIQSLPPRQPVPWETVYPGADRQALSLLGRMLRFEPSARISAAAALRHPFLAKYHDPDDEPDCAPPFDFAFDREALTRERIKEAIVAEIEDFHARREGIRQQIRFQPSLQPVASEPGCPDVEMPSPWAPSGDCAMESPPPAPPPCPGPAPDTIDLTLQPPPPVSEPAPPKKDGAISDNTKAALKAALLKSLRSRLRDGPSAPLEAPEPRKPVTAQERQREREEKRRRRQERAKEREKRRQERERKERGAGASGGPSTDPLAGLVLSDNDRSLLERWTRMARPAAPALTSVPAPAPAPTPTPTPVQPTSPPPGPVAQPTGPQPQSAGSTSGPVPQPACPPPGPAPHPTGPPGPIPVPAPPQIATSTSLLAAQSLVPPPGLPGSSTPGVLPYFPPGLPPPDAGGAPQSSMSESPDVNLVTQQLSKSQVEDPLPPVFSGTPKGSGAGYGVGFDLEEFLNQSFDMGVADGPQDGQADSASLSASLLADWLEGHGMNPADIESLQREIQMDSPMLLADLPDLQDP
Protocol: U-87 MG human glioblastoma cells were seeded in 6- or 12-well tissue culture plates, and after 1 hr, test compounds were added at various concentrations and incubated at 37° C./5% CO2 for 48 hr. Cells were then washed with cold PBS, aspirated and cold RIPA buffer containing a protease/phosphatase inhibitor cocktail was added to lyse cells. After centrifugation, the total protein concentrations of cell lysates were determined using the BCA protein assay. Samples were normalized for equivalent protein concentrations, 5×SDS-PAGE loading buffer added and denatured at 100° C. for 10 min. 20 μl of each sample/well was loaded on a SDS-PAGE gel and electrophoresed for 20 min at 80 V, then 120 V for 1.5 hr. Gels were then electroblotted to nitrocellulose membranes using a wet-transfer method at 250 mA for 2.5 hr. Membranes were incubated with blocking buffer for 1 hr and washed 3 times with TBST for 5 min. Membranes were then incubated with anti-MAPK7 (anti-ERK5; Cell Signaling Technology, #12950) and anti-3-Actin (Cell Signaling Technology, #3700) monoclonal antibodies diluted in blocking buffer at 4° C. overnight per the manufacturer's recommendations. After washing 3 times, blots were incubated with appropriately labeled secondary antibodies for 1 hr at room temperature and washed again. Fluorescence imaging and quantitation was performed using a LI-COR Odyssey. Results was analyzed using GraphPad Prism 7 software.

[4] = tested on: U-87 MG human glioblastoma; experiment: U87 MG CCK-8 proliferation assay; assay type: cell-based; conditions: U-87 MG cells, read-out: U87MG CCK-8
Procedure, shortened: as §1

[5] = target: T2, HSP90α protein (Homo sapiens, UniProt P07900); experiment: HSP90α-binding FP (BODIPY) assay; conditions: FP competition with BODIPY-labeled RNK04010
T2 construct: purchased BPS Bioscience #50298
Procedure, shortened: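 Fluorescence polarization measured competition with N-terminal human HSP90α, using either FITC-geldanamycin or BODIPY-labelled triazolone RNK04010 as tracer (5 nM final each). Compounds were tested in 2.5-fold dilutions from 20 μM to 5.2 nM, with incubation at 25 °C for 120 min (FITC) or 300 min (BODIPY).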

[6] = target: T1, MAPK7; experiment: MAPK7 kinase assay (ADP-Glo); assay type: biochemical; design: purchased Carna Biosciences #04-146; conditions: ATP 340 μM
Protocol: The inhibition of MAPK7 kinase activity by test compounds was measured by the ADP-Glo Kinase Assay (Promega, #V6930), following the manufacturer's instructions, except as noted. 3-fold serial dilutions of each test compound were prepared ranging from 50 μM to 2.54 nM. Also, as a positive control, a 4-fold serial dilution of the MAPK7 inhibitor, XMD17-109 (MedChemExpress, #HY-15665) was prepared ranging from 10 μM to 0.04 nM. In brief, in 384-well plates, test compounds were added to the kinase reaction mix containing recombinant MAPK7 protein (Carna Biosciences, #04-146; 20 nM final concentration), myelin basic protein (SignalChem Biotech, #M42-54G; 0.1 mg/ml final concentration) and ATP (340 μM final concentration), then mixed by shaking and incubated with ADP-Glo Reagent and Kinase Detection Reagent. Luminescence was measured on a BioTek plate reader.
Lumpositive: The average ratio for 10 wells of positive controls (10 μM XMD17-109) across the plate.
Lumvehicle: The average ratio for 10 wells of negative controls (0.5% DMSO) across the plate.

SMILES	EC50 ([2]; Homo sapiens, MV4-11)	MAPK7 degradation (30 nM) ([3]; 30 nM)	MAPK7 degradation (100 nM) ([3]; 100 nM)	MAPK7 degradation (1000 nM) ([3]; 1000 nM)	EC50 ([4]; Homo sapiens, U-87 MG, 72 h)	IC50 [5]	IC50 [6]	EC50 [2]	EC50 ([4]; 72 hr)	ERBB2 degradation [1]
CCOc1cc(N2CCC(C(=O)N3CCN(Cc4ccc(-n5c(O)nnc5-c5cc(C(C)C)c(O)cc5O)cc4)CC3)CC2)ccc1Nc1ncc2c(n1)N(C)c1ccccc1C(=O)N2C [Compound 024, 2-((4-(4-(4-(4-(3-(2,4-dihydroxy-5-isopropylphenyl)-5-hydroxy-4H-1,2,4-triazol-4-yl)benzyl)piperazine-1-carbonyl)piperidin-1-yl)-2-ethoxyphenyl)amino)-5,11-dimethyl-5,11-dihydro-6H-benzo[e]pyrimido[5,4-b][1,4]diazepin-6-one]	< 0.1 µM	C (< 33% degradation)	B (33-66% degradation)	A (>66% degradation)	< 0.1 µM	0.1 to 1 µM	> 1 µM	–	–	B (DC50 = 100-1000 nM)
CCOc1cc(N2CCC(C(=O)N3CCC(N4CCN(Cc5ccc(-n6c(O)nnc6-c6cc(C(C)C)c(O)cc6O)cc5)CC4)CC3)CC2)ccc1Nc1ncc2c(n1)N(C)c1ccccc1C(=O)N2C.Cl [Compound 042, 2-((4-(4-(4-(4-(4-(3-(2,4-dihydroxy-5-isopropylphenyl)-5-hydroxy-4H-1,2,4-triazol-4-yl)benzyl)piperazin-1-yl)piperidine-1-carbonyl)piperidin-1-yl)-2-ethoxyphenyl)amino)-5,11-dimethyl-5H-benzo[e]pyrimido[5,4-b][1,4]diazepin-6(11H)-one]	–	–	–	–	–	< 0.1 µM	> 1 µM	< 0.1 µM	< 0.1 µM	B (DC50 = 100-1000 nM)
CCOc1cc(N2CCC(C(=O)N3CCN(Cc4ccc(-n5c(O)nnc5-c5cc(C(C)C)c(O)cc5O)cc4)CC3)CC2)ccc1N(C)c1ncc2c(n1)N(C)c1ccccc1C(=O)N2C [Compound 047, 2-((4-(4-(4-(4-(3-(2,4-dihydroxy-5-isopropylphenyl)-5-hydroxy-4H-1,2,4-triazol-4-yl)benzyl)piperazine-1-carbonyl)piperidin-1-yl)-2-ethoxyphenyl)(methyl)amino)-5,11-dimethyl-5,11-dihydro-6H-benzo[e]pyrimido[5,4-b][1,4]diazepin-6-one]	< 0.1 µM	–	–	–	0.1 to 1 µM	0.1 to 1 µM	> 1 µM	–	–	B (DC50 = 100-1000 nM)
CCNC(=O)c1nnc(-c2cc(CC)c(O)cc2O)n1-c1ccc(CN2CCN(CC3CCN(C(=O)C4CCN(c5ccc(Nc6ncc7c(n6)N(S(C)(=O)=O)c6ccccc6C(=O)N7C)c(OCC)c5)CC4)CC3)CC2)cc1.Cl [Compound 096, 4-(4-((4-((1-(1-(3-ethoxy-4-((5-methyl-11-(methylsulfonyl)-6-oxo-6,11-dihydro-5H-benzo[e]pyrimido[5,4-b][1,4]diazepin-2-yl)amino)phenyl)piperidine-4-carbonyl)piperidin-4-yl)methyl)piperazin-1-yl)methyl)phenyl)-N-ethyl-5-(5-ethyl-2,4-dihydroxyphenyl)-4H-1,2,4-triazole-3-carboxamide]	< 0.1 µM	–	–	–	< 0.1 µM	< 0.1 µM	< 0.1 µM	–	–	B (DC50 = 100-1000 nM)

Further lines, with some results ahead:

EC50 ([2]; Homo sapiens, MV4-11)	MAPK7 degradation (30 nM) ([3]; 30 nM)	MAPK7 degradation (100 nM) ([3]; 100 nM)	MAPK7 degradation (1000 nM) ([3]; 1000 nM)	EC50 ([4]; Homo sapiens, U-87 MG, 72 h)	IC50 [5]	IC50 [6]	EC50 [2]	EC50 ([4]; 72 hr)	SMILES	ERBB2 degradation [1]
< 0.1 µM	–	–	–	< 0.1 µM	< 0.1 µM	> 1 µM	–	–	CCOc1cc(N2CCC(C(=O)N3CCC(CN4CCN(Cc5ccc(-n6c(O)nnc6-c6cc(C(C)C)c(O)cc6O)cc5)CC4)CC3)CC2)ccc1N(CC)c1ncc2c(n1)N(S(C)(=O)=O)c1ccccc1C(=O)N2C [Compound 099, 2-((4-(4-(4-((4-(4-(3-(2,4-dihydroxy-5-isopropylphenyl)-5-hydroxy-4H-1,2,4-triazol-4-yl)benzyl)piperazin-1-yl)methyl)piperidine-1-carbonyl)piperidin-1-yl)-2-ethoxyphenyl)(ethyl)amino)-5-methyl-11-(methylsulfonyl)-5,11-dihydro-6H-benzo[e]pyrimido[5,4-b][1,4]diazepin-6-one]	B (DC50 = 100-1000 nM)
0.1 to 1 µM	–	–	–	> 1 µM	> 1 µM	> 1 µM	–	–	CCOc1cc(N2CCC(C(=O)NCCOCCNC(=O)O[C@H]3CC[C@H](Nc4cc(-n5nc(C(F)(F)F)c6c5CC(C)(C)CC6=O)ccc4C(N)=O)CC3)CC2)ccc1Nc1ncc2c(n1)N(C)c1ccccc1C(=O)N2C [Compound 103, (1R,4R)-4-((2-carbamoyl-5-(6,6-dimethyl-4-oxo-3-(trifluoromethyl)-4,5,6,7-tetrahydro-1H-indazol-1-yl)phenyl)amino)cyclohexyl (2-(2-(1-(4-((5,11-dimethyl-6-oxo-6,11-dihydro-5H-benzo[e]pyrimido[5,4-b][1,4]diazepin-2-yl)amino)-3-ethoxyphenyl)piperidine-4-carboxamido)ethoxy)ethyl)carbamate]	C (DC50 > 1000 nM)
0.1 to 1 µM	–	–	–	> 1 µM	> 1 µM	> 1 µM	–	–	CCOc1cc(N2CCC(C(=O)NCCOCCNC(=O)O[C@H]3CC[C@H](Nc4cc(-n5nc(C(F)(F)F)c6c5CC(C)(C)CC6=O)ccc4C(N)=O)CC3)CC2)ccc1Nc1ncc2c(n1)N(S(C)(=O)=O)c1ccccc1C(=O)N2C [Compound 105, (1R,4R)-4-((2-carbamoyl-5-(6,6-dimethyl-4-oxo-3-(trifluoromethyl)-4,5,6,7-tetrahydro-1H-indazol-1-yl)phenyl)amino)cyclohexyl (2-(2-(1-(3-ethoxy-4-((5-methyl-11-(methylsulfonyl)-6-oxo-6,11-dihydro-5H-benzo[e]pyrimido[5,4-b][1,4]diazepin-2-yl)amino)phenyl)piperidine-4-carboxamido)ethoxy)ethyl)carbamate]	C (DC50 > 1000 nM)
< 0.1 µM	–	–	–	0.1 to 1 µM	0.1 to 1 µM	> 1 µM	–	–	CCOc1cc(N2CCC(C(=O)N3CCC(CN4CCN(Cc5ccc(-n6c(C(=O)NC(C)C(F)(F)F)nnc6-c6cc(CC)c(O)cc6O)cc5)CC4)CC3)CC2)ccc1N(CC)c1ncc2c(n1)N(S(C)(=O)=O)c1ccccc1C(=O)N2C (stereo not shown) [Compound 115, 4-(4-((4-((1-(1-(3-ethoxy-4-(ethyl(5-methyl-11-(methylsulfonyl)-6-oxo-6,11-dihydro-5H-benzo[e]pyrimido[5,4-b][1,4]diazepin-2-yl)amino)phenyl)piperidine-4-carbonyl)piperidin-4-yl)methyl)piperazin-1-yl)methyl)phenyl)-5-(5-ethyl-2,4-dihydroxyphenyl)-N-(1,1,1-trifluoropropan-2-yl)-4H-1,2,4-triazole-3-carboxamide]	B (DC50 = 100-1000 nM)
